A short description of data set [1]: Molar enthalpy of transition or fusion. The following applies: Crystal 2; DSC.
For data set [2] the following is noted: Crystal 2; DSC.

± gives the expanded uncertainty stated by the source.

Turning to `O=C1COC(=O)CO1` [1,4-dioxane-2,5-dione], the “Molar enthalpy of transition or fusion” value in data set [1] was 1.76 ± 0.21 kJ/mol. The Triple point temperature in data set [2] is reported as 317.51 ± 2.1 K.
